Results: patent publication US7981893B2, “Heteroaryl compounds, compositions thereof, and methods of treatment therewith” (Signal Pharmaceuticals, LLC, priority 2006, dated 2011)

Structure (SMILES) | melting point
COc1ccc(-c2cnc3[nH]c(=O)n(CC4CCCCC4)c3n2)cn1 [Compound 131, 1-(Cyclohexylmethyl)-6-(6-methoxypyridin-3-yl)-1H-imidazo[4,5-b]pyrazin-2(3H)-one] | 235 to 237 °C
Cn1cc(-c2cnc3[nH]c(=O)n(CC4CCOCC4)c3n2)cn1 [Compound 170, 6-(1-Methyl-1H-pyrazol-4-yl)-1-((tetrahydro-2H-pyran-4-yl)methyl)-1H-imidazo[4,5-b]pyrazin-2(3H)-one] | 224 to 226 °C
CNC(=O)c1ccc(-c2cnc3[nH]c(=O)n(CC4CCCCC4)c3n2)cc1 [Compound 99, 4-(3-(Cyclohexylmethyl)-2-oxo-2,3-dihydro-1H-imidazo[4,5-b]pyrazin-5-yl)-N-methylbenzamide] | 273 to 275 °C
O=c1[nH]c2ncc(-c3ccc(O)cc3)nc2n1CC1CCOC1 (stereo not shown) [Compound 172, 6-(4-Hydroxyphenyl)-1-((tetrahydrofuran-3-yl)methyl)-1H-imidazo[4,5-b]pyrazin-2(3H)-one] | 256 to 258 °C
O=c1[nH]c2ncc(-c3ccc(-c4n[nH]c(CO)n4)cc3)nc2n1CC1CCOCC1 [Compound 196, 6-(4-(5-(Hydroxymethyl)-1H-1,2,4-triazol-3-yl)phenyl)-1-((tetrahydro-2H-pyran-4-yl)methyl)-1H-imidazo[4,5-b]pyrazin-2(3H)-one] | 258 to 260 °C
O=c1[nH]c2ncc(-c3ccc(O)cc3)nc2n1C1CCOCC1 [Compound 132, 6-(4-Hydroxyphenyl)-1-(tetrahydro-2H-pyran-4-yl)-1H-imidazo[4,5-b]pyrazin-2(3H)-one] | 382 to 383 °C
O=c1[nH]c2ncc(-c3ccc(-c4n[nH]c(C(F)(F)F)n4)cc3)nc2n1CC1CCCCC1 [Compound 163, 1-(Cyclohexylmethyl)-6-(4-(5-(trifluoromethyl)-1H-1,2,4-triazol-3-yl)phenyl)-1H-imidazo[4,5-b]pyrazin-2(3H)-one] | 303 to 305 °C
O=c1[nH]c2ncc(-c3ccc(CO)cc3)nc2n1CC1CCCCC1 [Compound 100, 1-(Cyclohexylmethyl)-6-(4-(hydroxymethyl)phenyl)-1H-imidazo[4,5-b]pyrazin-2(3H)-one] | 275 to 277 °C
CC(C)(O)c1ccc(-c2cnc3[nH]c(=O)n(CC4CCCCC4)c3n2)cc1 [Compound 114, 1-(Cyclohexylmethyl)-6-(4-(2-hydroxypropan-2-yl)phenyl)-1H-imidazo[4,5-b]pyrazin-2(3H)-one] | 226 to 228 °C
NCc1nc(-c2ccc(-c3cnc4[nH]c(=O)n(CCC5CCOCC5)c4n3)cc2)n[nH]1 [Compound 220, 6-(4-(5-(aminomethyl)-1H-1,2,4-triazol-3-yl)phenyl)-1-(2-(tetrahydro-2H-pyran-4-yl)ethyl)-1H-imidazo[4,5-b]pyrazin-2(3H)-one] | 258 to 260 °C
O=C1CCCN1CCCn1c(=O)[nH]c2ncc(-c3ccc(O)cc3)nc21 [Compound 176, 6-(4-Hydroxyphenyl)-1-(3-(2-oxopyrrolidin-1-yl)propyl)-1H-imidazo[4,5-b]pyrazin-2(3H)-one] | 305 to 306 °C
O=c1[nH]c2ncc(-c3ccc4cc[nH]c4c3)nc2n1CC1CCCCC1 [Compound 106, 1-(Cyclohexylmethyl)-6-(1H-indol-6-yl)-1H-imidazo[4,5-b]pyrazin-2(3H)-one] | 359 to 363 °C
Cl.O=c1[nH]c2ncc(-c3ccc(O)cc3)nc2n1CC1CCCN1 (stereo not shown) | 178 to 180 °C
O=C1CCC(Cn2c(=O)[nH]c3ncc(-c4ccc(O)cc4)nc32)N1 (stereo not shown) [Compound 198, 6-(4-Hydroxyphenyl)-1-((5-oxopyrrolidin-2-yl)methyl)-1H-imidazo[4,5-b]pyrazin-2(3H)-one] | 338 to 340 °C
COCCNc1ncc(-c2cnc3[nH]c(=O)n(CC4CCCCC4)c3n2)cn1 [Compound 212, 1-(Cyclohexylmethyl)-6-(2-(2-methoxyethylamino)pyrimidin-5-yl)-1H-imidazo[4,5-b]pyrazin-2(3H)-one] | > 250 °C
CNc1ccc(-c2cnc3[nH]c(=O)n(CC4CCOCC4)c3n2)cn1 [Compound 235, 6-(6-(Methylamino)pyridin-3-yl)-1-((tetrahydro-2H-pyran-4-yl)methyl)-1H-imidazo[4,5-b]pyrazin-2(3H)-one] | > 260 °C
O=c1[nH]c2ncc(-c3ccc(-n4ccnc4)cc3)nc2n1CC1CCCCC1 [Compound 151, 6-(4-(1H-Imidazol-1-yl)phenyl)-1-(cyclohexylmethyl)-1H-imidazo[4,5-b]pyrazin-2(3H)-one] | 284 to 287 °C
N#Cc1ccc(-c2cnc3[nH]c(=O)n(CC4CCCCC4)c3n2)cc1 [Compound 110, 4-(3-(Cyclohexylmethyl)-2-oxo-2,3-dihydro-1H-imidazo[4,5-b]pyrazin-5-yl)benzonitrile] | 255 to 257 °C
COc1cccc(CN2CC(=O)Nc3ncc(-c4ccc(O)cc4)nc32)c1 [Compound 119, 6-(4-Hydroxyphenyl)-4-(3-methoxybenzyl)-3,4-dihydropyrazino[2,3-b]pyrazin-2(1H)-one] | 282 to 283 °C

Structure (SMILES) | melting point
CC(C)(O)c1nc(-c2ccc(-c3cnc4[nH]c(=O)n(CC5CCOCC5)c4n3)cc2)n[nH]1 [Compound 185, 6-(4-(5-(2-Hydroxypropan-2-yl)-1H-1,2,4-triazol-3-yl)phenyl)-1-((tetrahydro-2H-pyran-4-yl)methyl)-1H-imidazo[4,5-b]pyrazin-2(3H)-one] | 249 to 253 °C
O=C(O)c1ccc(-c2cnc3[nH]c(=O)n(CC4CCCCC4)c3n2)cc1 [Compound 116, 4-(3-(Cyclohexylmethyl)-2-oxo-2,3-dihydro-1H-imidazo[4,5-b]pyrazin-5-yl)benzoic acid] | > 350 °C
O=c1[nH]c2ncc(-c3cccc(-c4cn[nH]n4)c3)nc2n1CC1CCCCC1 [Compound 150, 6-(3-(2H-1,2,3-Triazol-4-yl)phenyl)-1-(cyclohexylmethyl)-1H-imidazo[4,5-b]pyrazin-2(3H)-one] | 299 to 301 °C
O=c1[nH]c2ncc(-c3cncnc3)nc2n1CC1CCCCC1 [Compound 230, 1-(Cyclohexylmethyl)-6-(pyrimidin-5-yl)-1H-imidazo[4,5-b]pyrazin-2(3H)-one] | > 260 °C
O=c1[nH]c2ncc(-c3ccn[nH]3)nc2n1CC1CCCCC1 [Compound 125, 1-(Cyclohexylmethyl)-6-(1H-pyrazol-5-yl)-1H-imidazo[4,5-b]pyrazin-2(3H)-one] | 264 to 266 °C
Nc1ccc(-c2cnc3[nH]c(=O)n(CC4CCOCC4)c3n2)cn1 [Compound 232, 6-(6-Aminopyridin-3-yl)-1-((tetrahydro-2H-pyran-4-yl)methyl)-1H-imidazo[4,5-b]pyrazin-2(3H)-one] | > 260 °C
O=c1[nH]c2ncc(-c3ccc(O)cc3)nc2n1CC1CCCO1 (stereo not shown) [Compound 165, 6-(4-Hydroxyphenyl)-1-((tetrahydrofuran-2-yl)methyl)-1H-imidazo[4,5-b]pyrazin-2(3H)-one] | 256 to 258 °C
Cc1cc(-c2nc[nH]n2)ccc1-c1cnc2[nH]c(=O)n(CCC3CCOCC3)c2n1 [Compound 239, 6-(2-methyl-4-(1H-1,2,4-triazol-3-yl)phenyl)-1-(2-(tetrahydro-2H-pyran-4-yl)ethyl)-1H-imidazo[4,5-b]pyrazin-2(3H)-one] | 258 to 260 °C
O=c1[nH]c2ncc(-c3ccc(-n4ccnn4)cc3)nc2n1CC1CCCCC1 [Compound 157, 6-(4-(1H-1,2,3-Triazol-1-yl)phenyl)-1-(cyclohexylmethyl)-1H-imidazo[4,5-b]pyrazin-2(3H)-one] | 276 to 278 °C
O=c1[nH]c2ncc(-c3ccc4[nH]cnc4c3)nc2n1CCC1CCOCC1 [Compound 227, 6-(1H-benzo[d]imidazol-5-yl)-1-(2-(tetrahydro-2H-pyran-4-yl)ethyl)-1H-imidazo[4,5-b]pyrazin-2(3H)-one] | 264 to 265 °C
Cc1nc(-c2ccc(-c3cnc4[nH]c(=O)n(CC5CCOCC5)c4n3)cc2)[nH]c1C [Compound 199, 6-(4-(4,5-Dimethyl-1H-imidazol-2-yl)phenyl)-1-((tetrahydro-2H-pyran-4-yl)methyl)-1H-imidazo[4,5-b]pyrazin-2(3H)-one] | 250 to 254 °C (dec.)
COc1ccccc1-n1c(=O)[nH]c2ccc(-c3cccc(O)c3)nc21 [Compound 92, 5-(3-Hydroxyphenyl)-3-(2-methoxyphenyl)-1H-imidazo[4,5-b]pyridin-2(3H)-one] | 240 to 242 °C
O=c1[nH]c2ncc(-c3ccc(-c4nc[nH]n4)nc3)nc2n1CC1CCOCC1 [Compound 202, 6-(6-(1H-1,2,4-Triazol-3-yl)pyridin-3-yl)-1-((tetrahydro-2H-pyran-4-yl)methyl)-1H-imidazo[4,5-b]pyrazin-2(3H)-one] | 353 to 356 °C
O=c1[nH]c2ncc(-c3ccc4[nH]cnc4c3)nc2n1CC1CCCCC1 [Compound 148, 6-(1H-Benzo[d]imidazol-5-yl)-1-(cyclohexylmethyl)-1H-imidazo[4,5-b]pyrazin-2(3H)-one] | 217 to 220 °C
O=c1[nH]c2ncc(-c3cn[nH]c3)nc2n1CC1CCOCC1 [Compound 183, 6-(1H-Pyrazol-4-yl)-1-((tetrahydro-2H-pyran-4-yl)methyl)-1H-imidazo[4,5-b]pyrazin-2(3H)-one] | 238 to 240 °C
CC(C)(O)c1ccc(-c2cnc3[nH]c(=O)n(CC4CCOCC4)c3n2)cc1 [Compound 145, 6-(4-(2-Hydroxypropan-2-yl)phenyl)-1-((tetrahydro-2H-pyran-4-yl)methyl)-1H-imidazo[4,5-b]pyrazin-2(3H)-one] | 212 to 214 °C
COCc1nc(-c2ccc(-c3cnc4[nH]c(=O)n(CC5CCOCC5)c4n3)cc2)n[nH]1 [Compound 180, 6-(4-(5-(Methoxymethyl)-1H-1,2,4-triazol-3-yl)phenyl)-1-((tetrahydro-2H-pyran-4-yl)methyl)-1H-imidazo[4,5-b]pyrazin-2(3H)-one] | 273 to 276 °C
Cc1nc(-c2ccc(-c3cnc4[nH]c(=O)n(CC5CCCCC5)c4n3)cc2)n[nH]1 [Compound 159, 1-(Cyclohexylmethyl)-6-(4-(5-methyl-1H-1,2,4-triazol-3-yl)phenyl)-1H-imidazo[4,5-b]pyrazin-2(3H)-one] | 315 to 318 °C
